In patent US20110275630A1, “ISO[…] INHIBITORS” (ABBOTT LABORATORIES, priority 2003, published 2011):

Biological target: T1, ROCK 2 (Homo sapiens, UniProt O75116)
T1 construct: ROCK1 (1.5 nM; Invitrogen) or ROCK2 (0.2 nM; Upstate) catalytic domains; purchased Upstate
Assay: ROCK kinase activity assays ([33P]-ATP FlashPlate assay / HTRF assay)
Assay type: biochemical
Description: [33P]-ATP assay: ROCK activity is initially determined using a radioactive FlashPlate-based assay.

T1 sequence (O75116 92-354 limits assumed, species assumed): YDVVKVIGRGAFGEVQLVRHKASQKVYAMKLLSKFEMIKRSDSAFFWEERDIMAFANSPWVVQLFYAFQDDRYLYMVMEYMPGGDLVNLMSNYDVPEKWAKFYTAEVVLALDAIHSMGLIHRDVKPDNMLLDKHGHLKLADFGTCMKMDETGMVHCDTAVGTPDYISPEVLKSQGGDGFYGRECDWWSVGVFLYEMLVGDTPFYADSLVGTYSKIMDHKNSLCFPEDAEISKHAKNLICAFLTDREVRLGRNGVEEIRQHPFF

| SMILES | Ki [nM] |
| --- | --- |
| O=C(Nc1ccc(-c2cccc3c2CNC3=O)cc1)c1cc2cc(F)ccc2[nH]1 [Example 131, 5-fluoro-N-[4-(1-oxo-2,3-dihydro-1H-isoindol-4-yl)phenyl]-1H-indole-2-carboxamide] | 32.6 |
| O=C(Nc1ccc(-c2cccc3c2CNC3=O)cc1)c1cc2ccccc2o1 [Example 132, N-[4-(1-oxo-2,3-dihydro-1H-isoindol-4-yl)phenyl]-1-benzofuran-2-carboxamide] | 66.1 |
| O=C(Nc1ccc(-c2cccc3c2CNC3=O)cc1)c1ccc2c(c1)OCCO2 [Example 134, N-[4-(1-oxo-2,3-dihydro-1H-isoindol-4-yl)phenyl]-2,3-dihydro-1,4-benzodioxine-6-carboxamide] | 331 |
| O=C(Nc1ccc(-c2cccc3c2CNC3=O)cc1)c1cccc(S(=O)(=O)N2CCOCC2)c1 [Example 135, 3-(morpholin-4-ylsulfonyl)-N-[4-(1-oxo-2,3-dihydro-1H-isoindol-4-yl)phenyl]benzamide] | 8.75 |
| O=C(Nc1ccc(-c2cccc3c2CNC3=O)cc1)c1ccc(N2CCOCC2)nc1 [Example 136, 6-(morpholin-4-yl)-N-[4-(1-oxo-2,3-dihydro-1H-isoindol-4-yl)phenyl]pyridine-3-carboxamide] | 201 |
| NC1CCN(S(=O)(=O)c2cccc(C(=O)Nc3ccc(-c4cccc5c4CNC5=O)cc3)c2)CC1 [Example 137, 3-[(4-aminopiperidin-1-yl)sulfonyl]-N-[4-(1-oxo-2,3-dihydro-1H-isoindol-4-yl)phenyl]benzamide] | 12.8 |
| O=C1NCc2c1cccc2-c1ccc(Nc2nc3ccc(Cl)cc3o2)cc1 [Example 139, 4-{4-[(6-chloro-1,3-benzoxazol-2-yl)amino]phenyl}-2,3-dihydro-1H-isoindol-1-one] | 153 |
| O=C(Nc1ccc(-c2cccc3c2CNC3=O)cc1)c1cc2ccccc2[nH]1 [Example 140, N-[4-(1-oxo-2,3-dihydro-1H-isoindol-4-yl)phenyl]-1H-indole-2-carboxamide] | 27.4 |
